# Experimental data: the kinase profiling compilation of Christmann-Franck et al. (2016)
# Key:
# Experiment in all cases: KINOMEscan competition binding
# Settings in all cases: compound 10.0 µM
# [1] = target: ADCK3 (human) (UniProt Q8NI60)
# [2] = target: AURKA (human) (UniProt O14965)
# [3] = target: BRSK1 (human) (UniProt Q8TDC3)
# [4] = target: CAMK2B (human) (UniProt Q13554)
# [5] = target: CDC2L2 (human) (UniProt Q9UQ88)
# [6] = target: CDK16 (human) (UniProt Q00536)
# [7] = target: CDK8 (human) (UniProt P49336)
# [8] = target: CLK2 (human) (UniProt P49760)
# [9] = target: CSNK1A1 (human) (UniProt P48729)
# [10] = target: DDR2 (human) (UniProt Q16832)
# Chain of DDR2 (human) (Q16832 whole entry, looked up): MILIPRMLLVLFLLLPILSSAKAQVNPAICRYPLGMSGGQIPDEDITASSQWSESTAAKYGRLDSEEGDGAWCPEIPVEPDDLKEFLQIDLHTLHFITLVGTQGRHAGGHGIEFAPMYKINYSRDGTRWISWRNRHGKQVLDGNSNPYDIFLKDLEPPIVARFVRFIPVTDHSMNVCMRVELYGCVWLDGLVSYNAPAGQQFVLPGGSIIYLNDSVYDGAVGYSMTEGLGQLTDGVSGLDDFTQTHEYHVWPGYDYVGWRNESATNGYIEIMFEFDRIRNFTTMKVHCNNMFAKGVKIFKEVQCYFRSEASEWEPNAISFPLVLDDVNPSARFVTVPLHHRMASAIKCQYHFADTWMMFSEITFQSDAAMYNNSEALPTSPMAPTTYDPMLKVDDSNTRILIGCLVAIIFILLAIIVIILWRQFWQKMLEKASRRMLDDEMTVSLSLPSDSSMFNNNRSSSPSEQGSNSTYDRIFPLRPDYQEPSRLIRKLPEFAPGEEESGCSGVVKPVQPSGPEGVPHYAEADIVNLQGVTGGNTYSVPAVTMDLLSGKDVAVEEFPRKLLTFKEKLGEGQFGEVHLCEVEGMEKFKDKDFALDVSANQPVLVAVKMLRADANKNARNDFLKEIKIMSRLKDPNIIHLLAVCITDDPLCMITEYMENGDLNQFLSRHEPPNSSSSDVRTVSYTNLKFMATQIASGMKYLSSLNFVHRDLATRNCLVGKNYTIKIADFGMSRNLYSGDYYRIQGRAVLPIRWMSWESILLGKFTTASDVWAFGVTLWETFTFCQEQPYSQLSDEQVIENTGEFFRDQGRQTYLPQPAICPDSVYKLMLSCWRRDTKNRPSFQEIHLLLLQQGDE
# [11] = target: FER (human) (UniProt P16591)
# [12] = target: FGFR3 (human) (UniProt P22607)
# [13] = target: FGFR4 (human) (UniProt P22455)
# [14] = tested on: FLT3 (human), P36888 [R834Q]
# [15] = target: FLT4 (human) (UniProt P35916)
# Chain of FLT4 (human) (P35916 whole entry, looked up): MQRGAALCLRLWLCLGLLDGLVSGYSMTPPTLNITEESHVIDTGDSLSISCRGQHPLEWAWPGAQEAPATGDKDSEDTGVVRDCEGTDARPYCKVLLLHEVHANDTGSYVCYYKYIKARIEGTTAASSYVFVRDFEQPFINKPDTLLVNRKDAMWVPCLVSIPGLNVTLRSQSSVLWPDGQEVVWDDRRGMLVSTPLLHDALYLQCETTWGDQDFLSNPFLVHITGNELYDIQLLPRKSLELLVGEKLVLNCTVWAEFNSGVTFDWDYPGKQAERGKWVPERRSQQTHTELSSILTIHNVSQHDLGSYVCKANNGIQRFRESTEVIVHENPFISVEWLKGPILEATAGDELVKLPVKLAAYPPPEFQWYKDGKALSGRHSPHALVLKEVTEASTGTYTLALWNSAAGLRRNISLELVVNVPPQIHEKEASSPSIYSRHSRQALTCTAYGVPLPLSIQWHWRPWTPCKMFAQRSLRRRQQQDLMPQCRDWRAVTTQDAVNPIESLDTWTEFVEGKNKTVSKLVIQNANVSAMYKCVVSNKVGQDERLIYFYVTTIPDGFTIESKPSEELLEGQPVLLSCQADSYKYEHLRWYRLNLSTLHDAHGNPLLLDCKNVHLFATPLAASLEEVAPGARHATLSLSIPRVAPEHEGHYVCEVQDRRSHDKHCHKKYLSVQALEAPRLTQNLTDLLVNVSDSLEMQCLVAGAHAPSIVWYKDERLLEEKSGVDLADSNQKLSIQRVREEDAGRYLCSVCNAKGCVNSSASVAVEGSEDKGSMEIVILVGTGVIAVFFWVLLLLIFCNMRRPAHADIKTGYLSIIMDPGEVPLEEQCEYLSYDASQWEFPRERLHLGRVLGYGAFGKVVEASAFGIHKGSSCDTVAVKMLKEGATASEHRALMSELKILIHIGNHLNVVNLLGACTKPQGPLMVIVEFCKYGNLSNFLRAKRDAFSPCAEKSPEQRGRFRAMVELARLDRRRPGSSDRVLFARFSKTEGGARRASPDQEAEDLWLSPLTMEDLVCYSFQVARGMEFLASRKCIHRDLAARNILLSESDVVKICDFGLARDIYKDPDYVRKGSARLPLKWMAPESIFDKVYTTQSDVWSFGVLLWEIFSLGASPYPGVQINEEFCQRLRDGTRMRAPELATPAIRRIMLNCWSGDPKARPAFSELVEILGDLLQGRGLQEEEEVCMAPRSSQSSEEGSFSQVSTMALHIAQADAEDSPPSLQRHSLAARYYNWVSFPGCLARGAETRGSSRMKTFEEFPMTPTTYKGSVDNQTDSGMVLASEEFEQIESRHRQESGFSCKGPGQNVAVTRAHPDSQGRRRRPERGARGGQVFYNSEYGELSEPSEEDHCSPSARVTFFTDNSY
# [16] = target: LATS2 (human) (UniProt Q9NRM7)
# [17] = target: MAP2K5 (human) (UniProt Q13163)
# [18] = target: MAP2K7 (human) (UniProt O14733)
# [19] = target: MAPK11 (human) (UniProt Q15759)
# [20] = target: MAPK7 (human) (UniProt Q13164)
# [21] = target: MUSK (human) (UniProt O15146)
# Chain of MUSK (human) (O15146 whole entry, looked up): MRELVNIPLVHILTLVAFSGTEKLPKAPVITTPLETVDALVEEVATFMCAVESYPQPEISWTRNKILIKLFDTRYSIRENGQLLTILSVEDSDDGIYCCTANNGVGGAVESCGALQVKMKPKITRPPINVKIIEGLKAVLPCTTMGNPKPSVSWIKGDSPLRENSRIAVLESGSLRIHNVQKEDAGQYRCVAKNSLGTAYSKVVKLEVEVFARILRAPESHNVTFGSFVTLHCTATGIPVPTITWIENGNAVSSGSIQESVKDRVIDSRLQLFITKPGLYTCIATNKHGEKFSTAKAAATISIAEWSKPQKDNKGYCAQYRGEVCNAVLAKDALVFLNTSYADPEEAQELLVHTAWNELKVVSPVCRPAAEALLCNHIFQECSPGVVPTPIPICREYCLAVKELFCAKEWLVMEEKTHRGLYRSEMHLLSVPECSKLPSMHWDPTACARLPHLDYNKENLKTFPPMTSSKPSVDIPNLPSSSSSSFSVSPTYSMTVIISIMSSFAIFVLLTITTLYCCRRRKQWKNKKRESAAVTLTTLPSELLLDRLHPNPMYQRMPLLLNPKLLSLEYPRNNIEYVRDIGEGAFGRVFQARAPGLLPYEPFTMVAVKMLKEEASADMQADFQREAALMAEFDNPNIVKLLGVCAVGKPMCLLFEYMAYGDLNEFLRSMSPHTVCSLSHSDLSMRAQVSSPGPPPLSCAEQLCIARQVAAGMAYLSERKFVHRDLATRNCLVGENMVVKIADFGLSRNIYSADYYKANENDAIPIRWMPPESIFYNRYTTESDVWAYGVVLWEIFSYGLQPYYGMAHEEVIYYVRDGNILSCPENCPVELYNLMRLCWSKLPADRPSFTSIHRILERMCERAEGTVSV
# [22] = target: MYLK3 (human) (UniProt Q32MK0)
# [23] = target: MYO3A (human) (UniProt Q8NEV4)
# [24] = target: MYO3B (human) (UniProt Q8WXR4)
# [25] = target: NTRK1 (human) (UniProt P04629)
# [26] = target: PAK4 (human) (UniProt O96013)
# [27] = target: PLK1 (human) (UniProt P53350)
# [28] = target: PLK2 (human) (UniProt Q9NYY3)
# [29] = target: PRKACA (human) (UniProt P17612)
# [30] = target: PRKACB (human) (UniProt P22694)
# [31] = target: PRKCH (human) (UniProt P24723)
# [32] = target: RIPK4 (human) (UniProt P57078)
# [33] = target: SRC (human) (UniProt P12931)
# [34] = target: STK24 (human) (UniProt Q9Y6E0)
# [35] = target: STK3 (human) (UniProt Q13188)
# [36] = target: TEC (human) (UniProt P42680)
# [37] = target: TGFBR2 (human) (UniProt P37173)
# [38] = target: TLK2 (human) (UniProt Q86UE8)
# [39] = target: TNIK (human) (UniProt Q9UKE5)
# [40] = target: YES1 (human) (UniProt P07947)
# [41] = target: YSK4 (human) (UniProt Q56UN5)
# Chain of YSK4 (human) (Q56UN5 whole entry, looked up): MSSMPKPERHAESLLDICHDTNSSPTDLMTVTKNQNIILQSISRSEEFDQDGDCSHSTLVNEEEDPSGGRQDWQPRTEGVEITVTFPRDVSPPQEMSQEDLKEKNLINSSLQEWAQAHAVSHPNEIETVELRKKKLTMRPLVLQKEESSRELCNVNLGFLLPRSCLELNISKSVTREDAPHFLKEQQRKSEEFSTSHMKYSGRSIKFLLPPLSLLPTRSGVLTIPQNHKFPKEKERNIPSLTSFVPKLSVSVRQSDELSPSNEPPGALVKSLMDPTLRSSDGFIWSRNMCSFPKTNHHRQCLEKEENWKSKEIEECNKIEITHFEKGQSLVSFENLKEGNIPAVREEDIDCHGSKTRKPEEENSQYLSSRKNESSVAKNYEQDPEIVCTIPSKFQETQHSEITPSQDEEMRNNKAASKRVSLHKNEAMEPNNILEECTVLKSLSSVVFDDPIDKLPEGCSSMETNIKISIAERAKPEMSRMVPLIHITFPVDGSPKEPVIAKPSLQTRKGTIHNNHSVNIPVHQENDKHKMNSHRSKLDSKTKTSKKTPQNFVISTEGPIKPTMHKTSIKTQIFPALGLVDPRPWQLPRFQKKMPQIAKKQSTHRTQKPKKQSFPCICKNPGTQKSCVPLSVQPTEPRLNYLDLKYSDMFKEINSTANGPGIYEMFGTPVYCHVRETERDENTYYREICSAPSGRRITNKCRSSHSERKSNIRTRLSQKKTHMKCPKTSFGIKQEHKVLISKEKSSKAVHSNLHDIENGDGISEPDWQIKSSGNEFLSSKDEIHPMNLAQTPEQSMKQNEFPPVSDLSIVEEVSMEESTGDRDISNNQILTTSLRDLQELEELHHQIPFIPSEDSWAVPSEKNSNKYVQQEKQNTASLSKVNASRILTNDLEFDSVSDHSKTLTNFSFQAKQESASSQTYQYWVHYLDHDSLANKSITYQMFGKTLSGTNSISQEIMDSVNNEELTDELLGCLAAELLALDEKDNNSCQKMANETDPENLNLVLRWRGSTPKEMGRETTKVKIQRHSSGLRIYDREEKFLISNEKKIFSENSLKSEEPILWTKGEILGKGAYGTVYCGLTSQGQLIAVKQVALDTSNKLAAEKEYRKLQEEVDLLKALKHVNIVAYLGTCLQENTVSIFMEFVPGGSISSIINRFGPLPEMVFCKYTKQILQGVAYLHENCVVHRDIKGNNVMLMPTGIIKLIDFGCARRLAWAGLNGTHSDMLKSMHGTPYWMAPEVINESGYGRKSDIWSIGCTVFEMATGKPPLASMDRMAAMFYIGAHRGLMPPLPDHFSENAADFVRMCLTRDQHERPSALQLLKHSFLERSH
# Chain of ADCK3 (human) (Q8NI60 whole entry, looked up): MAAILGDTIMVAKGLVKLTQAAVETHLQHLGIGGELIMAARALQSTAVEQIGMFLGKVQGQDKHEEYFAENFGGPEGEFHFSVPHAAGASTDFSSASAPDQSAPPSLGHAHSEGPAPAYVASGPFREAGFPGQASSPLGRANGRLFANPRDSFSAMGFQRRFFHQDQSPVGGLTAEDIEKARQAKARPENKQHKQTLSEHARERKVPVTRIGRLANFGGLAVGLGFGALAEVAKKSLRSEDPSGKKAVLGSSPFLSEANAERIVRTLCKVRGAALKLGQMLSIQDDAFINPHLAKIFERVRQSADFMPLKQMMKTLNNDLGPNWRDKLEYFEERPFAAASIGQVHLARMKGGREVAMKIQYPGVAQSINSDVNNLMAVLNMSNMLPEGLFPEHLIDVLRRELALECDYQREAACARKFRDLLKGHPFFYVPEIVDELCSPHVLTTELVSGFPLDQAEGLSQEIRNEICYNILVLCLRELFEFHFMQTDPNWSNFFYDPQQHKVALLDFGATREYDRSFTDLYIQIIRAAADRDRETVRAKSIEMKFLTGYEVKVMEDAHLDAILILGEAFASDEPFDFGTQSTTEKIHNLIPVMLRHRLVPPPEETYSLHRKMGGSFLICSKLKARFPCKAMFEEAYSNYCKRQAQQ
smiles,measurement,setting,value
COc1cc(C(=O)N2CCC(N3CCN(C)CC3)CC2)ccc1Nc1ncc2c(n1)N(C)c1ccccc1C(=O)N2C,"kinase still bound, per cent of control",[1],71%
same,"kinase still bound, per cent of control",[2],1.2%
same,"kinase still bound, per cent of control",[3],81%
same,"kinase still bound, per cent of control",[4],62%
same,"kinase still bound, per cent of control",[5],82%
same,"kinase still bound, per cent of control",[6],96%
same,"kinase still bound, per cent of control",[7],100%
same,"kinase still bound, per cent of control",[8],72%
same,"kinase still bound, per cent of control",[9],100%
same,"kinase still bound, per cent of control",[10],100%
same,"kinase still bound, per cent of control",[11],51%
same,"kinase still bound, per cent of control",[12],80%
same,"kinase still bound, per cent of control",[13],28%
same,"kinase still bound, per cent of control",[14],100%
same,"kinase still bound, per cent of control",[15],100%
same,"kinase still bound, per cent of control",[16],95%
same,"kinase still bound, per cent of control",[17],85%
same,"kinase still bound, per cent of control",[18],100%
same,"kinase still bound, per cent of control",[19],60%
same,"kinase still bound, per cent of control",[20],0.05%
same,"kinase still bound, per cent of control",[21],99%
same,"kinase still bound, per cent of control",[22],100%
same,"kinase still bound, per cent of control",[23],94%
same,"kinase still bound, per cent of control",[24],83%
same,"kinase still bound, per cent of control",[25],69%
same,"kinase still bound, per cent of control",[26],94%
same,"kinase still bound, per cent of control",[27],0.7%
same,"kinase still bound, per cent of control",[28],100%
same,"kinase still bound, per cent of control",[29],100%
same,"kinase still bound, per cent of control",[30],100%
same,"kinase still bound, per cent of control",[31],100%
same,"kinase still bound, per cent of control",[32],74%
same,"kinase still bound, per cent of control",[33],100%
same,"kinase still bound, per cent of control",[34],87%
same,"kinase still bound, per cent of control",[35],71%
same,"kinase still bound, per cent of control",[36],100%
same,"kinase still bound, per cent of control",[37],100%
same,"kinase still bound, per cent of control",[38],99%
same,"kinase still bound, per cent of control",[39],100%
same,"kinase still bound, per cent of control",[40],100%
same,"kinase still bound, per cent of control",[41],99%
